The text below walks through data of a melting point compilation (Tetko et al.; mined from patent text by program, amines drawn as free bases though some values may be those of a salt).

Molecule `COc1c(-c2ccc3cc(NS(C)(=O)=O)ccc3c2)cc(-n2ccc(=O)[nH]c2=O)cc1C(C)(C)CO` displayed a melting point of 256 to 257 °C.

Consider `Cc1cn(CCCCc2ccccc2)c2ccc(C(=O)Nc3cccc4c(=O)cc(-c5nnn[nH]5)oc34)cc12`, for which the melting point lay in the range of 186 to 187 °C.

As to `O=Cc1ccc(Cl)cc1O`, the melting point was 47 to 48 °C.

The molecule `CCN(CC)CCOc1ccc(Nc2ncc3c(n2)N(CC)C(=O)N(c2cc(OC)cc(OC)c2)C3)cc1` gave a melting point of 139 to 141 °C.

On to `CC(=O)N1c2ccccc2CC1c1cc(Cl)ccc1NC(=O)C(C)(C)C` (centres undefined), for which the melting point was 131 to 134 °C.

In turn, `CC(C)OC(=O)c1cc(-n2c(=O)c3c(n(C)c2=O)CCCC3)c(F)cc1Cl` had a melting point of 113 to 115 °C.

`COc1cc2c(cc1OC)-c1cc(OC)c(OC)c3c1C(C2)CN(C)C3` (centres undefined) yielded a melting point of 170 to 177 °C.

In turn, `Cn1nnnc1Cc1ccc(N)cc1` displayed a melting point of 104 to 105 °C.

The molecule `CCc1c(-c2ccc(O)cc2)c2cc(COCCCN(C)C)c3cccc1n32` displayed a melting point of 146 to 147 °C.

As to `COC(=O)Cc1ccc(OCCNC(=O)[C@@H]2Cc3ccccc3N2S(=O)(=O)c2ccc(OC(C)(C)C)cc2)cc1`, the melting point was in the range of 45 to 48 °C.

`CCNC(=O)c1c(Cl)cccc1[Si](C)(C)C(C)C` showed a melting point of 98 to 100 °C.

Molecule `Cc1ccc2c(c1)C(=O)CC2c1ccc(F)cc1` (centres undefined) returned a melting point of 68 to 70 °C.

Molecule `O=C(O)c1cn2c(-c3ccccc3)ncc2c2ccccc12` yielded a melting point of 187 to 190 °C.

The molecule `CCOCC1OC(n2cnc3c(NC4CCCC4)ncnc32)C(O)C1O` (centres undefined) gave a melting point of 134 to 136 °C.

Take `O=C(O)c1ccsc1-c1sccc1C(=O)O`: the melting point lay within 194 to 198 °C.

The molecule `Nc1c(Cl)cc(Cl)n2nc(SCc3ccccc3)nc12` had a melting point of 118 to 119 °C.

`CCCCCCCCCCCCc1ccc(S(=O)(=O)Nc2nncs2)cc1` returned a melting point of 126 to 127 °C.

`O=Cc1ccc(-c2ccccc2)c(Cl)c1` showed a melting point of 70 to 72 °C.

The molecule `CC1C(=O)NC(=O)NC1=O` gave a melting point of 200 to 215 °C.

`Cc1ccc(C(=O)O)c(C2=NC(=O)C(C)(C(C)C)N2)n1` (centres undefined) came in with a melting point of 139 to 142 °C.

The molecule `CC(=O)OCCC1CCc2cccc3c(C4=C(c5cn(C)c6ccccc56)C(=O)OC4=O)cn1c23` (centres undefined) registered a melting point of 143 to 146 °C.

The molecule `Cc1oc(-c2ccccc2)nc1COc1ccc(COc2cccc(CCC(=O)O)c2)cc1` came in with a melting point of 157 to 158 °C.

The molecule `CCC(=O)Oc1cc(OC)cc(OC)c1C(=O)C=Cc1ccc(C)cc1` came in with a melting point of 156 °C.

In turn, `COc1ccc(C(O)(c2ccc3nc(Cl)nc(-c4cccc(Cl)c4)c3c2)c2cncn2C)cc1` (centres undefined) yielded a melting point of 144 °C.

Turning to `CCS(=O)(=O)c1ncc(S(N)(=O)=O)s1`, the melting point lay within 129 to 130 °C.

In turn, `COc1ccc(C(=O)NC(=S)Nc2ccccc2C(N)=O)cc1` registered a melting point of 193 to 196 °C.

As to `COc1ccc(-c2nc3cccnc3n2CC(=O)O)cc1`, the melting point was in the range of 260 to 263 °C.

In turn, `CCN(c1nc(C)cc(C(=O)c2ccc3[nH]ccc3c2)n1)c1ccc(C(C)C)cc1Br` yielded a melting point of 77 to 79 °C.

Consider `COc1cc(N2CCN(Cc3ccccc3)CC2)c2nccc(C)c2c1`, for which the melting point is 154 to 155 °C.

Molecule `CC(C)NC1=NS(=O)(=O)c2cc(C(F)(F)F)ccc2N1` gave a melting point of 287 to 289 °C.

As to `COC(=O)c1cccc(-c2cc(-c3ccc(Cl)cc3)on2)c1`, the melting point lay in the range of 157 to 158 °C.

Consider `O=C(O)Cc1cc(Cl)cc(Cl)c1Cl`, for which the melting point was 125 to 133 °C.

Turning to `CCCCOc1cc2c(c3c1OC(C)(C)C3)C(c1ccccc1)=NC(C)(C)C2`, the melting point was 99 to 101 °C.

With `COc1ccc(C2=NN(C3CCSCC3)C(=O)[C@H]3CC=CC[C@@H]23)cc1OC` (relative stereo), the melting point fell in the range of 140 to 141 °C.

For `Cc1oc(-c2ccccc2)nc1COc1ccc(COc2ncccc2CC#N)cc1`, the melting point was in the range of 149 to 150 °C.

Turning to `COc1cc(C=Cc2ccc(=O)[nH]n2)cc(OC)c1OC`, the melting point was 194 to 196 °C.

The molecule `CCCCOc1ccccc1-c1ncc(-c2nnn[nH]2)c(=O)[nH]1` had a melting point of 244 to 247 °C.

As to `O=C(O)C1CCN(c2ncc(NS(=O)(=O)c3ccccc3Br)c(NCc3ccccc3)n2)CC1`, the melting point fell in the range of 114 to 117 °C.

Regarding `Cc1nnc2ccc(-c3cccc(NC(=O)C(C)(C)C)c3)nn12`, the melting point lay in the range of 256 to 258 °C.

As for `COC(=O)C=Cc1ccc(OCC2CCCCC2)cc1`, the melting point was determined as 104 °C.

`CC(=O)Oc1ccccc1C(=O)Nc1nc(S(C)=O)cs1` (centres undefined) had a melting point of 167 to 169 °C.

`Nc1nccnc1C(=O)N1CCCC1` displayed a melting point of 100 to 105 °C.

Molecule `O=C(c1ccoc1)c1cccc(-c2c(O)c3ccc(Cl)cc3[nH]c2=O)c1` showed a melting point of 284 to 286 °C.

`CC(=O)c1ccc(OCCCN2CCC(c3noc4cc(F)ccc34)CC2)c(O)c1` returned a melting point of 122 to 124 °C.

The molecule `CCCC(Cc1ccc(OCCN2CCOCC2)cc1)(C(=O)NO)S(=O)(=O)c1ccc(OC)cc1` (centres undefined) had a melting point of 101 °C.

`CS(=O)(=O)c1ccc(-c2cc(C(F)F)nn2-c2ccc(F)cc2)cc1F`: the melting point was 201 to 202 °C.

Molecule `C[C@@H]1Cc2ccsc2[C@H](C)N1CCNC(=O)c1ccccc1N` (relative stereo) gave a melting point of 89 to 94 °C.

For `CCCOCC(=O)c1ccc([N+](=O)[O-])cc1`, the melting point lay in the range of 49 to 50 °C.

Consider `Brc1ccc(C2(c3ccc(Br)cc3)OCCO2)cc1`, for which the melting point was 103 to 104 °C.

Molecule `Cc1noc(C)c1-c1cn(Cc2ccccc2)c(=O)c2cnccc12` came in with a melting point of 174 to 177 °C.

In turn, `CC(C)(Sc1cc(C(C)(C)C)c(O)c(C(C)(C)C)c1)Sc1cc(C(C)(C)C)c(OCCC(O)C(O)CCO)c(C(C)(C)C)c1` (centres undefined) came in with a melting point of 75 to 77 °C.

Take `CC(=O)N1C=C(c2ccccc2)NC(=O)C1C(C)C` (racemic): the melting point was in the range of 182 to 185 °C.

Molecule `CCCN(c1ccncc1)n1cc(C(C)=O)c2ccccc21` returned a melting point of 81 to 86 °C.

`O=S1(=O)c2sccc2C=C(CO)N1CCO` came in with a melting point of 81 to 83 °C.

Molecule `CC1CC(=O)NN=C1c1ccc2c(c1)N(C(C)C)C(=O)C(C)O2` (centres undefined) showed a melting point of 204 to 205 °C.

In the case of `CCOC(=O)c1cccn2cc(C(Cl)Cl)nc12`, the melting point was in the range of 108 to 110 °C.

For the molecule `Oc1ccc(Nc2ncc3nc(Nc4c(F)cc(F)cc4F)n(C4CCCC4)c3n2)cn1`, the melting point lay in the range of 257 to 260 °C.

Turning to `CCOC(=O)N1CCC(Nc2ccc(Cl)cc2[N+](=O)[O-])CC1`, the melting point came out at 116 °C.

`CSc1ncc(C(=O)NCCO)c(Nc2ccc3[nH]ncc3c2)n1`: the melting point is > 270 °C.

In the case of `Cc1cc2cc(C3CCNCC3)oc2cc1C`, the melting point fell in the range of 77 to 78 °C.

As for `CCOC(=O)Nc1cc2nc(O)c(O)nc2cc1Cl`, the melting point is > 300 °C.

For `CN(CCCO)CC1(SSC2(CN(C)CCCO)CCCCC2)CCCCC1`, the melting point lay within 65 to 66 °C.

Molecule `O=c1ccsc2c3ccccc3n(-c3ccccc3[N+](=O)[O-])c12` yielded a melting point of 207 to 208 °C.

On to `COC(=O)SN(C(=O)NC(=O)c1c(F)cccc1F)c1ccc(Oc2ccc(C(F)(F)F)cc2Cl)cc1`, for which the melting point lay in the range of 108 to 109 °C.

One may read the melting point as the temperature of the solid-liquid transition.
